# Experimental data published in patent publication US11091428B2 (HAPLOGEN GMBH, priority 2016, dated 2021).
# Read-outs that look alike come from different tables or passages of the source.
# Assays:
# PLA2G16 = target: T1, PLA2G16 (Homo sapiens, UniProt P53816); test: Enzyme activity assay for PLA2G16 (Red/Green BODIPY PC-A2 fluorescence); assay type: biochemical; conditions: His-tagged PLA2G16, 4 min pre-incubation, 2 nM to 50 μM; read-out: IC50 values of the compounds determined in the enzyme activity assay for PLA2G16
# T1 construct: Hexa-His (N); made in house; host or cells: E. coli BL21(DE3)
# T1 sequence (P53816 1-162): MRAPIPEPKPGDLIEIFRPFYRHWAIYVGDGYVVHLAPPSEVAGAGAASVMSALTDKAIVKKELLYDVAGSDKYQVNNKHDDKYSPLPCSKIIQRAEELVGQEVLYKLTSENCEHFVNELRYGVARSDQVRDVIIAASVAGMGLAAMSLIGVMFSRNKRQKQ
# How it was run: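 IC50 from non-linear fits of fluorescence rise (480/530 nm, 10 min) after adding Red/Green BODIPY PC-A2 mixed with DOPC/DOPG/cholesterol liposomes. Recombinant His-tagged human enzyme, bacterially expressed, was first exposed to inhibitor (2 nM–50 μM final) for 4 min in 50 mM Tris pH 8.5, 100 mM NaCl, 5 mM glutathione.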
# [1] = test system: picornaviruses (CVB1, HRV-A2, HRV-A23, EV-68); test: Anti-picornavirus cytopathic effect (CPE) reduction assay on HeLa H1 cells; assay type: cell-based; conditions: Enterovirus B, HeLa H1, 48 h
# How it was run: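 Cytopathic-effect protection: EC50 from non-linear regression of cell viability (CellTiterBlue, 560/590 nm) 48 h post-infection, scaled between infected and mock-infected vehicle wells. Compound dilutions added to HeLa H1 cells 2 h before virus (MOI causing complete CPE within 2 days), in DMEM + 2% FBS; categories average the four viruses.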
# [2] = HeLa H1 cells, 48 h, category from averaging the EC50 values from four picornaviruses (CVB1, HRV-A2, HRV-A23, EV68), read-out: EC50 values of the compounds determined in the anti-picornavirus assay
Structure (SMILES),IC50 (PLA2G16) [µM],"EC50 [1, 2] [µM]","EC50 ([1]; read-out: EC50 values of the compounds determined in the anti-picornavirus assay, HeLa H1 cells, 48 h, category from averaging the EC50 values from four picornaviruses (CVB1, HRV-A2, HRV-A23, EV68)) [µM]"
"O=C(NCCCc1nccs1)C(=O)C1CCC(=O)N1Cc1ccccc1 (stereo not shown) [FP 229, 2-(1-Benzyl-5-oxopyrrolidin-2-yl)-2-oxo-N-[3-(1,3-thiazol-2-yl)propyl]acetamide]",< 1,< 1,–
"O=C(NC1CCN(S(=O)(=O)C2CCCC2)CC1)C(=O)[C@H]1CCC(=O)N1Cc1ccccc1 [FP 321, 2-[(2R)-1-Benzyl-5-oxopyrrolidin-2-yl]-N-[1-(cyclopentanesulfonyl)piperidin-4-yl]-2-oxoacetamide]",< 1,< 1,–
"CC(C)CN(C=O)C(C(=O)C(=O)NCC1CC1)C(C)C (stereo not shown) [FP 30, N-(Cyclopropylmethyl)-4-methyl-3-[N-(2-methylpropyl)formamido]-2-oxopentanamide]",< 1,1 to 10,–
"O=C(NC1CCCC1)C(=O)[C@H]1CCC(=O)N1Cc1ccccc1 [FP 239, 2-[(2R)-1-Benzyl-5-oxopyrrolidin-2-yl]-N-cyclopentyl-2-oxoacetamide]",< 1,< 1,–
"NC(=O)c1cccc(CN2C(=O)CCC2C(=O)C(=O)NCC2CCCCC2)c1 (stereo not shown) [FP 249, 3-[(2-{[(Cyclohexylmethyl)carbamoyl]carbonyl}-5-oxopyrrolidin-1-yl)methyl]benzamide]",< 1,–,< 1
"CC(OCC1CCOCC1)C(=O)C(=O)NCC1CC1 (stereo not shown) [FP 121, N-(Cyclopropylmethyl)-3-[(oxan-4-yl)methoxy]-2-oxobutanamide]",< 1,1 to 10,–
"N#CC1CC(NC(=O)C(=O)[C@H]2CCC(=O)N2Cc2ccccc2)C1 (stereo partly drawn) [FP 303, 2-[(2R)-1-Benzyl-5-oxopyrrolidin-2-yl]-N-(3-cyanocyclobutyl)-2-oxoacetamide]",< 1,1 to 10,–
"O=C(NCC1(CO)CC1)C(=O)C1CCC(=O)N1Cc1ccc(Cl)cc1 (stereo not shown) [FP 276, 2-{1-[(4-Chlorophenyl)methyl]-5-oxopyrrolidin-2-yl}-N-{[1-(hydroxymethyl)cyclopropyl]-methyl}-2-oxoacetamide]",< 1,1 to 10,–
"CC(NC(=O)c1ccccc1)C(=O)C(=O)NCC1CCCCC1 (stereo not shown) [FP 179, N-(Cyclohexylmethyl)-2-oxo-3-(phenylformamido)butanamide]",< 1,< 1,–
"COc1ccccc1N(C=O)C(C)C(=O)C(=O)NCc1c(C)cccc1C (stereo not shown) [FP 99, N-[(2,6-Dimethylphenyl)methyl]-3-[N-(2-methoxyphenyl)formamido]-2-oxobutanamide]",< 1,1 to 10,–
"CC(C)CNC(=O)C(=O)C(C)N(C=O)CC(F)(F)F (stereo not shown) [FP 46, N-(2-Methylpropyl)-2-oxo-3-[N-(2,2,2-trifluoroethyl)formamido]butanamide]",< 1,1 to 10,–
"O=C(NCC(F)F)C(=O)[C@H]1CCC(=O)N1Cc1ccccc1 [FP 266, 2-[(2R)-1-Benzyl-5-oxopyrrolidin-2-yl]-N-(2,2-difluoroethyl)-2-oxoacetamide]",< 1,< 1,–
"O=C(NC1CN(C(=O)C2CCCC2)C1)C(=O)[C@H]1CCC(=O)N1Cc1ccccc1 [FP 319, 2-[(2R)-1-Benzyl-5-oxopyrrolidin-2-yl]-N-(1-cyclopentanecarbonylazetidin-3-yl)-2-oxoacetamide]",< 1,1 to 10,–
"CC(C)NC(=O)C(=O)C(C)N(C=O)C1CCCCC1 (stereo not shown) [FP 36, 3-(N-Cyclohexylformamido)-2-oxo-N-(propan-2-yl)butanamide]",< 1,1 to 10,–
"CC(OCC(C)(C)C)C(=O)C(=O)NCC1CC1 (stereo not shown) [FP 122, N-(Cyclopropylmethyl)-3-(2,2-dimethylpropoxy)-2-oxobutanamide]",1 to 10,1 to 10,–
"CC(C)CNC(=O)C(=O)C(C)N(C=O)CC1CC1 (stereo not shown) [FP 16, 3-[N-(cyclopropylmethyl)formamido]-N-(2-methylpropyl)-2-oxobutanamide]",< 1,1 to 10,–
"CC(C)CNC(=O)C(=O)C(C)N(C=O)C1CCCCC1 (stereo not shown) [FP 15, 3-(N-Cyclohexylformamido)-N-(2-methylpropyl)-2-oxobutanamide]",< 1,< 1,–
